According to publication doi:10.1101/2024.08.13.607785v1 (biorxiv, 2024):

Experiments:
Parameters in all cases: species or system mixed lysate of K562, MV4-11, THP-1, NCI-H1155
[1] = target: Activated CDC42 kinase 1 ; TNK2 ; Q07912 (Homo sapiens, UniProt Q07912); conditions: DDA-MS residual binding; binder
[2] = target: T1, Cyclin-G-associated kinase ; GAK ; O14976 (Homo sapiens, UniProt O14976); conditions: DDA-MS residual binding; binder
T1 sequence (O14976 1-1311): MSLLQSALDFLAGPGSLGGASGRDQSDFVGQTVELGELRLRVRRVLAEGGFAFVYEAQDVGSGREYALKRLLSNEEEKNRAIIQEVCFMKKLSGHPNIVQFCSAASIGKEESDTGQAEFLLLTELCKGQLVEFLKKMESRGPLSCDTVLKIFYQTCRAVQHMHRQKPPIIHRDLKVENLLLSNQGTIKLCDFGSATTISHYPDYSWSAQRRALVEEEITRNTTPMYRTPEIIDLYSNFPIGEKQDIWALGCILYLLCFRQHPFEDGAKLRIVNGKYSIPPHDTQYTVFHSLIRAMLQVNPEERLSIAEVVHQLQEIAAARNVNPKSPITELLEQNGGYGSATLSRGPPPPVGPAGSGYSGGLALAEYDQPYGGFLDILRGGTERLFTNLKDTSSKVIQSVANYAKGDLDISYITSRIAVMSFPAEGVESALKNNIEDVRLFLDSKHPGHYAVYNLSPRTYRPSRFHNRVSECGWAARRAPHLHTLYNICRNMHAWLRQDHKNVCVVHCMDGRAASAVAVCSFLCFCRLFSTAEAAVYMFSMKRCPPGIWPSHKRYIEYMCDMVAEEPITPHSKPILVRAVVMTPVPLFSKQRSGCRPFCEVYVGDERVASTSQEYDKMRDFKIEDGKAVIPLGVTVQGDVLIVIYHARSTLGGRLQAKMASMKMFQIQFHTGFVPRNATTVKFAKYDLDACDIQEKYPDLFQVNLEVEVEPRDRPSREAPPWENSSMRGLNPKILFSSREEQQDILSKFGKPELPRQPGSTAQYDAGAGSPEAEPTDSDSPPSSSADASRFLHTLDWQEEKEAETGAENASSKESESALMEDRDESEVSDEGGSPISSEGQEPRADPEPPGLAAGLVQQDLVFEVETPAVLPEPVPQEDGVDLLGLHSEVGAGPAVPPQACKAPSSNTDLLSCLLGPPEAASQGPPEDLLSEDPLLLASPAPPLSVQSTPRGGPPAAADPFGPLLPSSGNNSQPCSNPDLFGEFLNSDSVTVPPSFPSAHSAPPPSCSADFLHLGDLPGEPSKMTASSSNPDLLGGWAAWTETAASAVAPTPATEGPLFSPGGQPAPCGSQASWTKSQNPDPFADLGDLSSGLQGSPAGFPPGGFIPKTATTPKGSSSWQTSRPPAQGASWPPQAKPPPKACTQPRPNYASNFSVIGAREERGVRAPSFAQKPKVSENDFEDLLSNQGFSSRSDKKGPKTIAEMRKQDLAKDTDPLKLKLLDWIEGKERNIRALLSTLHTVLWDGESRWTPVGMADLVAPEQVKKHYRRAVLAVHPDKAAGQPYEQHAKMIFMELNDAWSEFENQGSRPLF

[3] = target: Isoform 3 of Serine/threonine-protein kinase SIK3 ; SIK3-7 ; Q9Y2K2-7 (Homo sapiens, UniProt Q9Y2K2); conditions: DDA-MS residual binding; binder
[4] = target: LIM domain kinase 2 ; LIMK2 ; P53671 (Homo sapiens, UniProt P53671); conditions: DDA-MS residual binding; binder
[5] = target: Mitogen-activated protein kinase kinase kinase kinase 5 ; MAP4K5 ; Q9Y4K4 (Homo sapiens, UniProt Q9Y4K4); conditions: DDA-MS residual binding; binder
[6] = target: Receptor-interacting serine/threonine-protein kinase 2 ; RIPK2 ; O43353 (Homo sapiens, UniProt O43353); conditions: DDA-MS residual binding; binder
[7] = target: Tyrosine-protein kinase HCK ; HCK ; P08631 (Homo sapiens, UniProt P08631); conditions: DDA-MS residual binding; binder
[8] = target: T2, Tyrosine-protein kinase Tec ; TEC ; P42680 (Homo sapiens, UniProt P42680); conditions: binder
T2 sequence (P42680 1-631): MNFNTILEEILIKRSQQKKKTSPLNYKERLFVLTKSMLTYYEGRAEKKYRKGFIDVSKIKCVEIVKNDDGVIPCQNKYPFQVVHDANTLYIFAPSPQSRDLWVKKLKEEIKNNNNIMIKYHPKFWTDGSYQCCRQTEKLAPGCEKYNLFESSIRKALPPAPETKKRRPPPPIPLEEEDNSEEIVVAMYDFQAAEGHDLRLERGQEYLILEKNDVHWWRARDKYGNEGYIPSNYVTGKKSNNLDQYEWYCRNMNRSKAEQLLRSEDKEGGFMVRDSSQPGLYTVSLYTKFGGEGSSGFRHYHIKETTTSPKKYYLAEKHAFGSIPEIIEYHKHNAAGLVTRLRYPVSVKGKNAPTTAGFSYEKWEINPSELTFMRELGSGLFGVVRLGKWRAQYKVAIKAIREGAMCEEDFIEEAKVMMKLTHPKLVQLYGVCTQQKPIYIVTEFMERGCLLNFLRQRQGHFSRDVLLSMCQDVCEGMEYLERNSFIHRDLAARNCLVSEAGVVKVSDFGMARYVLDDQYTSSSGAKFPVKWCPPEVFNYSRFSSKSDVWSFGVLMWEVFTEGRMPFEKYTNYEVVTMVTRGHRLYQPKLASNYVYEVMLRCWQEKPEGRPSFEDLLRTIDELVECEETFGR

Sequence of Isoform 3 of Serine/threonine-protein kinase SIK3 ; SIK3-7 ; Q9Y2K2-7 (Q9Y2K2 whole entry, the tested form may be a part, canonical isoform, one chain of several): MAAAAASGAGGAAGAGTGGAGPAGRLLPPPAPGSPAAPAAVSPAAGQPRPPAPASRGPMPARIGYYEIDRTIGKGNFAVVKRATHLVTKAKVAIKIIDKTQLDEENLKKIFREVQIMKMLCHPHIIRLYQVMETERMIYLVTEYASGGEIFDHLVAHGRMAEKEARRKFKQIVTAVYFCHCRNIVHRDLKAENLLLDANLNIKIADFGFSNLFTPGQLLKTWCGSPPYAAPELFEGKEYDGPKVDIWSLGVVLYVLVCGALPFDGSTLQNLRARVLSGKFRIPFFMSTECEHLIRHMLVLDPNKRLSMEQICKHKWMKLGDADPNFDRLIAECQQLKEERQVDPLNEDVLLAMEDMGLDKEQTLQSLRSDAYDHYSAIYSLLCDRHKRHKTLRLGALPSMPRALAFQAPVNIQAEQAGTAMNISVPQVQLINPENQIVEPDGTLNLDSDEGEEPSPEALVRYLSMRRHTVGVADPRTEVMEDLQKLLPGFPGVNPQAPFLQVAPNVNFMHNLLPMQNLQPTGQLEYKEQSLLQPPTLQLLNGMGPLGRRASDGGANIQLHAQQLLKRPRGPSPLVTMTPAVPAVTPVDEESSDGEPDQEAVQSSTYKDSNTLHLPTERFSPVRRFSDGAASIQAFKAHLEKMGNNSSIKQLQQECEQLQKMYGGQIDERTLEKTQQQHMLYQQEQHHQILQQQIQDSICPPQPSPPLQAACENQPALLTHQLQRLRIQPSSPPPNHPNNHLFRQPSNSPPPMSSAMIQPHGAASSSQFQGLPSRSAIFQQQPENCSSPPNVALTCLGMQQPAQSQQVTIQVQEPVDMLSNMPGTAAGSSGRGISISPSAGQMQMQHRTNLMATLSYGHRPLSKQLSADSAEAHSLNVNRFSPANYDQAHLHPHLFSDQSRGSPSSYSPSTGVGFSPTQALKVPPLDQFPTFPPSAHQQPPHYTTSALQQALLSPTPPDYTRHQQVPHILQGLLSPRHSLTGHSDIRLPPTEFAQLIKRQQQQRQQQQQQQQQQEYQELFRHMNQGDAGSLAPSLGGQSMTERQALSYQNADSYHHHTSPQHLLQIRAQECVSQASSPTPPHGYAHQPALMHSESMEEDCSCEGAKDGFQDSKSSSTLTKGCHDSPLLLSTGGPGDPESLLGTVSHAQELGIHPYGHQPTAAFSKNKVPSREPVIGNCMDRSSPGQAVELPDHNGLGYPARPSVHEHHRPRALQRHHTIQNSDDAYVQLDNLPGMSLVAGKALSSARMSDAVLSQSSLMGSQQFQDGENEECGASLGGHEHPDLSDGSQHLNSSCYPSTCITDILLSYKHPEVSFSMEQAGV
Sequence of Receptor-interacting serine/threonine-protein kinase 2 ; RIPK2 ; O43353 (O43353 whole entry, one chain of several): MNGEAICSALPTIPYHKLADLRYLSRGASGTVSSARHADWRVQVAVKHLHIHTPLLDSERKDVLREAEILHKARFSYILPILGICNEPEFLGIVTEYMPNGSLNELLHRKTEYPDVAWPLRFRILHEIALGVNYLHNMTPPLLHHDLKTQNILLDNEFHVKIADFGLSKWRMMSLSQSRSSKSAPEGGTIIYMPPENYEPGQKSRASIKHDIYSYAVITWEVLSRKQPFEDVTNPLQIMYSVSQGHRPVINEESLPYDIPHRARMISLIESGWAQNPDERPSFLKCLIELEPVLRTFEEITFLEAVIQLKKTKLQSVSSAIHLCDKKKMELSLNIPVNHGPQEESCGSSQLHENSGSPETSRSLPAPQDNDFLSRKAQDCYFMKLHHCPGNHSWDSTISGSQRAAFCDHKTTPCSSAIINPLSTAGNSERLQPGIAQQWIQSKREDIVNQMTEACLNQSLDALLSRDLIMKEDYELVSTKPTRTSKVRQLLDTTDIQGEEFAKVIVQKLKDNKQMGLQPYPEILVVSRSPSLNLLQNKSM
Sequence of Mitogen-activated protein kinase kinase kinase kinase 5 ; MAP4K5 ; Q9Y4K4 (Q9Y4K4 whole entry): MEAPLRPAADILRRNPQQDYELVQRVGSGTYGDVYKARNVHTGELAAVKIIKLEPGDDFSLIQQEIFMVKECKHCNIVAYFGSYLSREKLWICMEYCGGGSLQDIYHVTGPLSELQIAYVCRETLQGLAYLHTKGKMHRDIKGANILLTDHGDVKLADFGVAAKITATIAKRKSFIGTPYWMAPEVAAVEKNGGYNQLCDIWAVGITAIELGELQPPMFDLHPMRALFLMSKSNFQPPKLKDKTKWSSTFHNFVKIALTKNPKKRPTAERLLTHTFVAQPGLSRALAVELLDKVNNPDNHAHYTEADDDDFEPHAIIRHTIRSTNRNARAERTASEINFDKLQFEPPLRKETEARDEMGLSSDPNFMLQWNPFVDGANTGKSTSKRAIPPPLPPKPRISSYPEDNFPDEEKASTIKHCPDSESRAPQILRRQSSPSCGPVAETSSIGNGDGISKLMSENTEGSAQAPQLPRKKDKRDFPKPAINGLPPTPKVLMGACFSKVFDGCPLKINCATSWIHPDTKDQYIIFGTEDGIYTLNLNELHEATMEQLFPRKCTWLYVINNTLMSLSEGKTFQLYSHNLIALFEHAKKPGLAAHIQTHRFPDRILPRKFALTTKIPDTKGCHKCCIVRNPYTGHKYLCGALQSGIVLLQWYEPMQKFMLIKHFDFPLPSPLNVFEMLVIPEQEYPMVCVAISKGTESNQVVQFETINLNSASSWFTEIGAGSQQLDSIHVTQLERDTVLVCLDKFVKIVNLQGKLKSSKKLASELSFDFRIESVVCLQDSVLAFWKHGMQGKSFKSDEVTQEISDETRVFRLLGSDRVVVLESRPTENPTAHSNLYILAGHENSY
Sequence of Activated CDC42 kinase 1 ; TNK2 ; Q07912 (Q07912 whole entry): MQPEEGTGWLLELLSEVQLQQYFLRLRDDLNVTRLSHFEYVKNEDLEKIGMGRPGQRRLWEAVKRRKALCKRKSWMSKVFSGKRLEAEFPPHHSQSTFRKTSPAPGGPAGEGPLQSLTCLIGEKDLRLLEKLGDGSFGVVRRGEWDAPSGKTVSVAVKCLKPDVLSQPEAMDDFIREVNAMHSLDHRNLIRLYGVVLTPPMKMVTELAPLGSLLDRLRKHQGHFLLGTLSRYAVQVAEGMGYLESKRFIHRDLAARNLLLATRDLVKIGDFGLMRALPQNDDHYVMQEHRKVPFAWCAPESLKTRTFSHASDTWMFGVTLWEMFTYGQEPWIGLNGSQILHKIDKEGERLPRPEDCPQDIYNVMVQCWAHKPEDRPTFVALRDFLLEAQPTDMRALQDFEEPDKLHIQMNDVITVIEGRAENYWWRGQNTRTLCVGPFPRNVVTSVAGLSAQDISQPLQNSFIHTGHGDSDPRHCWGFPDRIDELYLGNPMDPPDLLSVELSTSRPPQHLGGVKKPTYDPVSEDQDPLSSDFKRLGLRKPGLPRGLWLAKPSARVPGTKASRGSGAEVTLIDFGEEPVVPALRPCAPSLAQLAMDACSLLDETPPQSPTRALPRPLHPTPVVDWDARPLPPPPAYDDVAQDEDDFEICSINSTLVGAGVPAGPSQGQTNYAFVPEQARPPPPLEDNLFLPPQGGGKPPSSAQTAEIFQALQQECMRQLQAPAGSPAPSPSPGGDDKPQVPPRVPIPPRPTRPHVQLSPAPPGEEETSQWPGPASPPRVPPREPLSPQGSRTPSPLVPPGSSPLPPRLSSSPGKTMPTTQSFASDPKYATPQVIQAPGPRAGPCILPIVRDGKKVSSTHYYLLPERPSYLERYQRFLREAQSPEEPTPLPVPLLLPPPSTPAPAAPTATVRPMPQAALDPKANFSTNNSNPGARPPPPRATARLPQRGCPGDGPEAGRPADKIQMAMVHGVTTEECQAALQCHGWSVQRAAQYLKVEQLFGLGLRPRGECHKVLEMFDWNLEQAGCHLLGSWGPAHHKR
Sequence of LIM domain kinase 2 ; LIMK2 ; P53671 (P53671 whole entry, the tested form may be a part): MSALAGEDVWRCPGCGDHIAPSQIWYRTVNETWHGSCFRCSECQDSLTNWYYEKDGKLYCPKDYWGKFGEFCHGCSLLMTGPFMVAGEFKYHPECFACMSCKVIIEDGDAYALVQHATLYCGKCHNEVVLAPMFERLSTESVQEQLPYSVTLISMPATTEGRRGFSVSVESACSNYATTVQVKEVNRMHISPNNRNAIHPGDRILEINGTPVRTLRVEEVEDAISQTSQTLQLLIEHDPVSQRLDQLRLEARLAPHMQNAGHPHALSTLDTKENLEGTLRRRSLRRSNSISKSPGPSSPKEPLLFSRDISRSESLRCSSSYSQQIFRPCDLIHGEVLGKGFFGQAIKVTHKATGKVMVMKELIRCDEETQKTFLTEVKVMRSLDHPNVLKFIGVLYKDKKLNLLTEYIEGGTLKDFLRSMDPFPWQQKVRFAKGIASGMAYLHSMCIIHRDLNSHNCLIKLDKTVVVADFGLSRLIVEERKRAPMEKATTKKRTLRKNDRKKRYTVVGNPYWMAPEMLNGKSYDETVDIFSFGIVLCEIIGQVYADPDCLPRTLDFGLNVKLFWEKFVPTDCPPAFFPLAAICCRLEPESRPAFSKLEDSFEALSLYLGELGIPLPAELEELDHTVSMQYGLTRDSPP
Sequence of Tyrosine-protein kinase HCK ; HCK ; P08631 (P08631 whole entry): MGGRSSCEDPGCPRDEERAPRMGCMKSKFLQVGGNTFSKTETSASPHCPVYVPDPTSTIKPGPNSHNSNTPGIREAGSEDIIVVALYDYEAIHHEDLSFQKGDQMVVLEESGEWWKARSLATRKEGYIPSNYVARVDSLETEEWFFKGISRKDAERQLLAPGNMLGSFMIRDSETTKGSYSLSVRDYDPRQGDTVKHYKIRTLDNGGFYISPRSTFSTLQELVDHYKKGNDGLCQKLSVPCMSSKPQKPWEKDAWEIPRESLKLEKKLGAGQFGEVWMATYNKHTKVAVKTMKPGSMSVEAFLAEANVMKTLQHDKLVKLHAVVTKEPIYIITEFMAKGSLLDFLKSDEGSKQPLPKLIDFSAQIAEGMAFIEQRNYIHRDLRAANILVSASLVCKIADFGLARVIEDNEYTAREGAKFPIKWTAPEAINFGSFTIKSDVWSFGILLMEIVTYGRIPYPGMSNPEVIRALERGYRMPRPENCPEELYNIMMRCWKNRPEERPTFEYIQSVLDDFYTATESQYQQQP

Question: What does the source list for `Cc1nc(Nc2ncc(C(=O)Nc3c(C)cccc3Cl)s2)cc(N2CCN(CCO)CC2)n1` [dasatinib]?
Answer: DDA-MS / % Intensity (30 µM/DMSO) [1]: 3.313%; DDA-MS / % Intensity (30 µM/DMSO) [2]: 1.947%; DDA-MS / % Intensity (30 µM/DMSO) [3]: 6.597%; DDA-MS / % Intensity (30 µM/DMSO) [4]: 7.37%; DDA-MS / % Intensity (30 µM/DMSO) [5]: 24.77%; DDA-MS / % Intensity (30 µM/DMSO) [6]: 1.02%; DDA-MS / % Intensity (30 µM/DMSO) [7]: 2.041%; DDA-MS / % Intensity (30 µM/DMSO) [8]: 2.183%
